Measured values from patent US9302967B2, “Substituted cathechols as inhibitors of IL-4 and IL-5 for the treatment of bronchial asthma” (Council of Scientific & Industrial Research, priority 2011, dated 2016).
Read-outs that look alike come from different tables or passages of the source.

What was measured:
[1] = set-up: species or system mice; settings: mouse, in vivo
Experimental: 14 d acute oral toxicity of compound 1 of formula I was performed. Three doses were selected: 47, 23, 12 and 0 mg/kg bw (Vehicle control) of compound 1 of formula I was administered by single oral gavage using blunt ended steel canula.
Before sacrifice, blood was drawn from the retro-orbital sinus of mice and rats with the help of non-heparinised capillary tubes and hematological parameters were assessed with the help of Automatic Hematology Analyzer (Medonic).

[2] = 90 d sub-chronic oral toxicity: immunotoxicity; format: in vivo
Experimental: (§1) Immunotoxicity in mice was performed in accordance to EPA guideline (1998). […] Humoral immunity was measured in terms of HA titer and plaque forming cell assay. […] Cell mediated immunity was measured in terms of % increase in paw volume in mice sensitized with SRBC.
Earlier, LD50 of ICB 14 C6 was derived from in vitro cytotoxicity assay by NRUmethod in 3T3 cells. […] For 90d sub-chronic toxicity study the highest dose selected was one-fourth of the limit dose. Four different doses of ICB14 C6 (47, 23, 12 and 0 [vehicle] mg/kg body weight) were prepared in ground nut oil daily for 5 days a week for 90d.

[3] = system: OVA sensitized, OVA challenged mice; assay: Airway hyperresponsiveness to methacholine (whole-body plethysmography), OVA mouse model of asthma; format: in vivo, BALB/c mice; settings: for AHR to Mch / lung function compared with dexamethasone: 10 mg/kg orally twice a day, DEX 0.75 mg/kg once a day; for MCh PC200 (AHR to methacholine): 0.05, 0.1, 5 and 10 mg/kg orally twice per day
Experimental: BALB/c mice (6-8 wks old, 18-22 grams) were obtained from IICB Kolkata and VPCI, Delhi. Ethical clearance has been obtained from Institutional Ethical Committee. Mice were acclimatized for at least one week under the laboratory conditions (25±2° C., 60% humidity) before starting the experiments. After one week, baseline Penh (enhanced pause) was measured in Buxco unrestrained single chamber plethysmography (WBP, Buxco, Troy, N.Y.).
Mice were sensitized with 0.2 ml PBS containing 50 μg ovalbumin (OVA) (Sigma, USA) and 4 mg aluminum hydroxide in saline intraperitonially (i.p.) on days 0, 7 and 14 as shown in FIG. 1. Sham group mice were sensitized with only alum dissolved in PBS. From day 18 to 27, mice were exposed to aerosol of OVA (3%) inhalation 25 minutes daily in a Plexiglas chamber (20×20×10 cm^3). The aerosol was generated by a nebulizer (OMRON CX model) with an airflow rate of 9 L/minute. Sham group mice were challenged with PBS alone.
Compound 1 of formula I was dissolved in 50% ethanol. So 50% ethanol was used as a vehicle. Group I was alum sensitized, saline challenged and treated with vehicle (SHAM/SAL/VEH), group II was OVA sensitized, OVA challenged and treated with 50% ethanol as vehicle (OVA/OVA/VEH), group III, IV, V, VI were OVA sensitized, OVA challenged and treated with 0.05, 0.1, 5 and 10 mg/kg compound 1 of formula I. Drug was given in the volume of 10 μl orally twice per day. Confirmatory experiments were done with two concentrations of compound 1 of formula I (5 and 10 mg/kg twice a day), and these findings were compared with parallel group of mice which were OVA-sensitized, -OVA challenged and treated orally once a day with 0.75 mg/kg Dexamethasone (OVA/OVA/DEX).
Airway responsiveness was measured by barometric plethysmography using whole-body plethysmography (WBP; Buxco, Troy, N.Y.) 12 hours after last saline or ovalbumin challenge. At the time of measurement the animals were awake and breathing spontaneously. Enhanced pause (Penh) to methacholine as measured using barometric plethysmography is a valid indicator of bronchoconstriction in mice and can be used to measure AHR (Am J Respir Crit Care Med 1997, 156, 766-775). Baseline Penh was taken initially, and then PBS followed by increasing concentrations (4-48 mg/ml) of methacholine was nebulized through an inlet of the main chamber for 3 min. Readings were taken and averaged for 5 minutes from the starting time of nebulisation. Airway responsiveness to MCh was evaluated by the concentration of MCh required to increase the Penh to twice the baseline value (MCh PC200).

[4] = 14 d acute oral toxicity: immunotoxicity (EPA guideline 1998); format: in vivo, mice; settings: for Bone marrow cell viability % / Lymph node lymphocyte viability % (pooled) / Splenocyte viability %: 14 d acute
Experimental: 14 d acute oral toxicity of compound 1 of formula I was performed. […]
as §1

[5] = listed as compound of formula I

SMILES: C=CCc1ccc(O)c(O)c1 [Compound 1, 4-allyl-benzene-1,2-diol]
- GRAN ([1]; 12 mg/kg): 9.82 ± 3.49%
- HCT ([1]; 12 mg/kg): 39.72 ± 5.27%
- HGB ([1]; 12 mg/kg): 12.6 ± 2.50 g/dL
- LYMF ([1]; 12 mg/kg): 8.54 ± 14.39%
- MCV ([1]; 12 mg/kg): 41.76 ± 1.268 μm^3
- MPV ([1]; 12 mg/kg): 6.96 ± 0.33 μm^3
- PLT ([1]; 12 mg/kg): 588 ± 198 10^3/mm^3
- RBC ([1]; 12 mg/kg): 9.52 ± 1.313 ×10^6/mm^3
- WBC ([1]; 12 mg/kg): 9.1 ± 0.86 ×10^3/mm^3
- GRAN ([1]; 23 mg/kg): 10.8 ± 2.30%
- HCT ([1]; 23 mg/kg): 42.05 ± 7.86%
- HGB ([1]; 23 mg/kg): 13.22 ± 1.72 g/dL
- LYMF ([1]; 23 mg/kg): 2.12 ± 3.45%
- MCV ([1]; 23 mg/kg): 41.675 ± 2.069 μm^3
- MPV ([1]; 23 mg/kg): 6.95 ± 0.36 μm^3
- PLT ([1]; 23 mg/kg): 518 ± 40 10^3/mm^3
- RBC ([1]; 23 mg/kg): 10.05 ± 1.477 ×10^6/mm^3
- WBC ([1]; 23 mg/kg): 13.52 ± 2.71 ×10^3/mm^3
- GRAN ([1]; 47 mg/kg): 9.46 ± 2.33%
- HCT ([1]; 47 mg/kg): 39.12 ± 1.76%
- HGB ([1]; 47 mg/kg): 13.2 ± 0.65 g/dL
- LYMF ([1]; 47 mg/kg): 1.0 ± 0.87%
- MCV ([1]; 47 mg/kg): 40.45 ± 1.126 μm^3
- MPV ([1]; 47 mg/kg): 7.1 ± 0.32 μm^3
- PLT ([1]; 47 mg/kg): 476.5 ± 124^ 10^3/mm^3
- RBC ([1]; 47 mg/kg): 9.74 ± 0.749 ×10^6/mm^3
- WBC ([1]; 47 mg/kg): 11.02 ± 2.61 ×10^3/mm^3
- Bone marrow cell viability % ([2]; 90 d, 12 mg/kg bw): 97.26 ± 0.88%
- Lymph node lymphocyte viability % (pooled) ([2]; 90 d, 12 mg/kg bw): 97.40 ± 0.61%
- Splenocyte viability % ([2]; 90 d, 12 mg/kg bw): 96.79 ± 0.36%
- Bone marrow cell viability % ([2]; 90 d, 23 mg/kg bw): 96.80 ± 1.15%
- Lymph node lymphocyte viability % (pooled) ([2]; 90 d, 23 mg/kg bw): 98.28 ± 0.80%
- Splenocyte viability % ([2]; 90 d, 23 mg/kg bw): 96.56 ± 0.80%
- Bone marrow cell viability % ([2]; 90 d, 47 mg/kg bw): 95.45 ± 0.31%
- Lymph node lymphocyte viability % (pooled) ([2]; 90 d, 47 mg/kg bw): 98.17 ± 0.05%
- Splenocyte viability % ([2]; 90 d, 47 mg/kg bw): 96.45 ± 0.62%
- Lymph node lymphocyte, splenocytes and bone marrow cell viabilities ([2]; 90 d, all the groups): > 94%
- B cell function (PFC) ([2]; mouse, in vivo): Dose dependant decrease in B cell function
- Total IgA ([2]; mouse, in vivo, 12 mg/kg): 264.25 ± 28.6 ng/mL
- Total IgE ([2]; mouse, in vivo, 12 mg/kg): 0.69 ± 0.115
- Total IgG ([2]; mouse, in vivo, 12 mg/kg): 12.98 ± 0.53 mg/mL
- Total IgM ([2]; mouse, in vivo, 12 mg/kg): 6.65 ± 0.13
- DTH response (% increase in paw volume) ([2]; mouse, in vivo, 12 mg/kg, 90 d): 12.12 ± 2.96%
- HA tire (reciprocal of the last dilution showing positive reaction) ([2]; mouse, in vivo, 12 mg/kg, 90 d): 1280
- PFC ([2]; mouse, in vivo, 12 mg/kg, 90 d): 5533 ± 437 per 10^6lymphocytes
- Total IgA ([2]; mouse, in vivo, 23 mg/kg): 207.25 ± 9.7 ng/mL
- Total IgE ([2]; mouse, in vivo, 23 mg/kg): 0.74 ± 0.23
- Total IgG ([2]; mouse, in vivo, 23 mg/kg): 15.21 ± 0.31 mg/mL
- Total IgM ([2]; mouse, in vivo, 23 mg/kg): 0.57 ± 0.17
- DTH response (% increase in paw volume) ([2]; mouse, in vivo, 23 mg/kg, 90 d): 11.55 ± 3.77%
- HA tire (reciprocal of the last dilution showing positive reaction) ([2]; mouse, in vivo, 23 mg/kg, 90 d): 640
- PFC ([2]; mouse, in vivo, 23 mg/kg, 90 d): 4911 ± 873 per 10^6lymphocytes
- Total IgA ([2]; mouse, in vivo, 47 mg/kg): 167 ± 2.12 ng/mL
- Total IgE ([2]; mouse, in vivo, 47 mg/kg): 0.65 ± 0.09
- Total IgG ([2]; mouse, in vivo, 47 mg/kg): 6.11 ± 0.25 mg/mL
- Total IgM ([2]; mouse, in vivo, 47 mg/kg): 1.02 ± 0.30
- DTH response (% increase in paw volume) ([2]; mouse, in vivo, 47 mg/kg, 90 d): 11.28 ± 3.69%
- HA tire (reciprocal of the last dilution showing positive reaction) ([2]; mouse, in vivo, 47 mg/kg, 90 d): 320
- PFC ([2]; mouse, in vivo, 47 mg/kg, 90 d): 1849 ± 780 per 10^6lymphocytes
- AHR to Mch / lung function compared with dexamethasone [3]: able to improve lung function almost similar to the level of dexamethasone
- AHR to Mch / lung function compared with dexamethasone [3, 5]: significantly reduced the AHR to Mch as effective as DEX
- MCh PC200 (AHR to methacholine) [3]: increased in a dose dependent manner
- MCh PC200 (AHR to methacholine) [3, 5]: effective at higher concentrations
- Bone marrow cell viability % ([4]; 12 mg/kg bw): >98%
- Lymph node lymphocyte viability % (pooled) ([4]; 12 mg/kg bw): >98%
- Splenocyte viability % ([4]; 12 mg/kg bw): 97.69 ± 0.96%
- Bone marrow cell viability % ([4]; 23 mg/kg bw): >98%
- Lymph node lymphocyte viability % (pooled) ([4]; 23 mg/kg bw): >98%
- Splenocyte viability % ([4]; 23 mg/kg bw): 97.64 ± 0.73%
- Bone marrow cell viability % ([4]; 47 mg/kg bw): >98%
- Lymph node lymphocyte viability % (pooled) ([4]; 47 mg/kg bw): >98%
- Splenocyte viability % ([4]; 47 mg/kg bw): 98.25 ± 0.92%
- DTH response (cell mediated immunity) ([4]; mouse, in vivo): insignificant changes in the DTH response
- viability of bone marrow cells, splenocyte and lymph node lymphocyte (trypan blue) ([4]; mouse, in vivo): No significant changes
- HA tire (reciprocal of the last dilution showing positive reaction) ([4]; mouse, in vivo, 12 mg/kg): 2560
- PFC ([4]; mouse, in vivo, 12 mg/kg): 10333 ± 3008 per 10^6lymphocytes
- PFC and HA titre against SRBC antigen ([4]; mouse, in vivo, 21 mg/kg): did not show any significant change
- DTH response (%) ([4]; mouse, in vivo, 23 mg/kg): 19.24 ± 10.5%
- HA tire (reciprocal of the last dilution showing positive reaction) ([4]; mouse, in vivo, 23 mg/kg): 2560
- PFC ([4]; mouse, in vivo, 23 mg/kg): 11633 ± 3636 per 10^6lymphocytes
- DTH response (%) ([4]; mouse, in vivo, 47 mg/kg): 17.75 ± 9.8%
- HA tire (reciprocal of the last dilution showing positive reaction) ([4]; mouse, in vivo, 47 mg/kg): 1280
- PFC ([4]; mouse, in vivo, 47 mg/kg): 2800 ± 1288 per 10^6lymphocytes
